Test results as given in article PMC10704959 (Biochemistry, 2023).

Target: MoLOX (Pyricularia oryzae, UniProt G4NAP4)
Conditions: read-out: KMμM

Sequence of MoLOX (G4NAP4 17-619 limits assumed): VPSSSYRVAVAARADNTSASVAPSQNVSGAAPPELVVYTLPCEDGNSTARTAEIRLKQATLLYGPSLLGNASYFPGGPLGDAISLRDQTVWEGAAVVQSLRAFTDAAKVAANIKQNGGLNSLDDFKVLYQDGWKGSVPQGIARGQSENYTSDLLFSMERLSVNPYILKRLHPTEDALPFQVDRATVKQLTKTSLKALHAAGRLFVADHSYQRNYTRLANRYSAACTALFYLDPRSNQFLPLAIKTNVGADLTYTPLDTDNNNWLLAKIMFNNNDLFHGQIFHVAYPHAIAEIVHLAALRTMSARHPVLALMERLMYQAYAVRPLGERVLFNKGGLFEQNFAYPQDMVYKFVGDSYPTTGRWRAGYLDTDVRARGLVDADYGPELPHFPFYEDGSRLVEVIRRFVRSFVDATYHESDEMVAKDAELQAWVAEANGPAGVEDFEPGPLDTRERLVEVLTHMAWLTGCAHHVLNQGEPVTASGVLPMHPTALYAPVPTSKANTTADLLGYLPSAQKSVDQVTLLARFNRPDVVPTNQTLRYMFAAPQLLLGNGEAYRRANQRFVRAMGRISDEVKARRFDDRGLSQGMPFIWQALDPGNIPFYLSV

Question: With CCCCC/C=C\C/C=C\CCCCCCCC(=O)O [LA, linoleic acid] as the compound, how does the Km read?
Answer: Its Km is 14 ± 2 µM.
